We go through five compounds from PMC9138567, “Strategy to Enhance Anticancer Activity and Induced Immunogenic Cell Death of Antimicrobial Peptides by Using Non-Nature Amino Acid Substitutions” (Biomedicines, 2022).

Non-standard residues stand in square brackets, D forms with d. Residues, ends and D or L forms follow the SMILES beside them. Bip = N[C@@H](Cc1ccc(-c2ccccc2)cc1)C(=O)O; Dip = N[C@H](C(=O)O)C(c1ccccc1)c1ccccc1; 2Nal = N[C@@H](Cc1ccc2ccccc2c1)C(=O)O

Series [1] deals with PC 9 cells. Kind of series: Propidium iodide/Hoechst 33342 staining (plasma membrane integrity). Conditions: PC 9, 2× IC50, 120 min, serum-free RPMI, fluorescence microscopy. It counts as cell-based. As for the experimental part:
To examine the membranolytic activities of peptides, the PI/Hoechst 33342 staining was performed in this study. The PI dye was used to stain damaged/dead cells, and Hoechst 33342 was used to specifically stain the nuclei of living cells. PC 9 cells were seeded at 20,000 cells/well in a RPMI medium and allowed to adhere for 48 h. Then, the cells were replaced with serum-free RPMI medium and then treated with 2× IC50 peptides at 37 °C for 120 min. Then, the PI and Hoechst 33342 were added at a final concentration of 1 μg/mL for 20 min. PC 9 cells were observed using the inverted fluorescent microscope Zeiss equipped with a 40× oil objective lens (Carl Zeiss, Jena, Germany). The experiments were repeated three times independently.

The test system of another series is human fibroblasts (HFW). Conditions: MTT, 100 μg/mL; cited from earlier work. As for the experimental part:
The toxicity of the peptides was determined previously by measuring cell death using MTT assays against human fibroblasts (HFW).

The test system of a further series is PC 9 cell line. It counts as cell-based. Conditions: for cell survival rate: 4 h; for cells killed: PC 9, 2× IC50, within 2 h, MTT. As to the method: A total of 5000 cells were incubated with Nal-P-113, Bip-P-113, and Dip-P-113 at 2× IC50 for 0.5, 1, 2, 3, and 4 h. After treatment, the MTT solution was further incubated for 3 h. Absorbance was measured at 570 nm on the microplate reader (TECAN Sunrise ELISA Reader) after the dissolution of the formazan crystal in 100 µL DMSO solution. The cell survival rate was calculated as aforementioned for cell viability assay.

Series [2] concerns PC 9 cells. Kind of series: JC-1 staining (mitochondrial membrane potential). It is filed as cell-based. Conditions: PC 9, 2× IC50, 120 min, serum-free RPMI, fluorescence microscopy. As to the method: PC 9 cells were seeded at 40,000 cells/well in a RPMI medium and allowed to adhere for 24 h. […] The JC-1 dye was added at a final concentration of 1 μg/mL for 45 min. PC 9 cells were observed using the inverted fluorescent microscope Zeiss equipped with a 20× oil objective lens (Carl Zeiss, Jena, Germany). The experiments were repeated three times independently.

Series [3] concerns PC 9 cells. In words: Extracellular ATP release, luciferin-luciferase assay. It counts as cell-based. Conditions: for treatment time of highest ATP release (RLU): PC 9, 2× IC50, time points 0.5, 1, 1.5, 2 h, supernatant. As for the experimental part:
PC 9 cells were seeded at the density of 10,000 cells/ well in the 96-well plate and allowed to adhere for 48 h. Cells were treated with Nal-P-113, Bip-P-113, and Dip-P-113 at 2× IC50 for 0.5, 1, 1.5, and 2 h. Untreated cells were served as the control group. After being treated for different time points (0.5, 1, 1.5, and 2 h), the supernatant of cells was analyzed using the ENLITEN ATP luciferase assay kit (Promega, Madison, WI, USA). The level of extracellular ATP chemiluminescence was measured using the Wallac VICTOR 3 Multilabel plate reader (PerkinElmer, Shelton, CT, USA).

Series [4] concerns PC 9 cells. Kind of series: Extracellular HMGB1 release, Western blot. It is filed as cell-based. As for the experimental part:
The PC 9 cells were seeded at the density of 25,000 cells/well and left to adhere for 48 h. Cells were treated with Nal-P-113, Bip-P-113, and Dip-P-113 at 2× IC50 for 1, 2, and 4 h. After treatment of the peptides, the supernatant and lysate of the cells were collected separately for further experiments. The supernatant was collected after centrifugation at the speed of 1400× g. The cell lysate was washed twice using PBS before the sonication of the pellet using a bio-disruptor, and the disrupted pellet was centrifuged again for 10 min under 14,000 rpm at 4 °C. The concentration of the samples was quantified using the Bradford assay. Both supernatants and cell lysate were loaded and run on the sodium dodecyl sulfate polyacrylamide gel electrophoresis (SDS-PAGE) and were then electro transferred to a polyvinylidene difluoride (PVDF) membrane (Merck-Millipore, Burlington, MA, USA) in an electro-blot system, 30 V, 400 mA, for 75 min. The membrane was incubated in blocking buffer (5% skim milk, TBST buffer) for 1 h at room temperature and washed in TBST buffer three times. The anti-HMGB1 antibody (Abcam, Cambridge, UK, ab18256) was incubated overnight at 4 °C in the dilution ratio of 1:1000. The secondary antibody of a rabbit (diluted in 1:10,000) was incubated following rinsing with PBST three times for 2 h the next day at room temperature before being developed using a luminol reagent and imaged by a detected system (ImageQuant LAS 4000 mini).

For series [5], the system named is PC 9 cells. Kind of series: Cytochrome c release, ELISA of supernatant. It counts as cell-based. Conditions: PC 9, 2× IC50, supernatant ELISA; for cytochrome c release, maximal value: highest over 0.5-4 h time course (Bip-P-113: at 4 h); for cytochrome c release, minimum value: lowest over 0.5-4 h time course (Bip-P-113: at 30 min). As for the experimental part:
PC 9 cells were seeded with 10,000 cells/well in the 96-well plate and allowed to adhere for 48 h and then treated with Nal-P-113, Bip-P-113, and Dip-P-113 at 2× IC50 for 0.5, 1, 1.5, 2, and 4 h. Untreated cells were used as a control group. Supernatants were collected after centrifugation at 16,000× g for 10 min. Samples were analyzed using the Quantikine ELISA Rat/ Mouse Cytochrome c Immunoassay (R & D Systems, Minneapolis, MN, USA) according to the manufacturer’s protocol. The optical density at the wavelength of 450 nm of each well was determined using the microplate reader (TECAN Sunrise ELISA Reader).

Series [6] relates to C9 oral squamous cell carcinoma cells. It counts as cell-based. Conditions: 24 h. As to the method: (§1) The three non-small cell lung cancer cell lines, H1975, PC 9, A549, and oral squamous cell carcinoma cell line OECM-1 were cultured in RPMI 1640 medium supplemented with 10% fetal bovine serum, 2 mM L-glutamine and 1% penicillin/ streptomycin. The oral cancer cell line C9 was cultured in DMEM with 10% fetal bovine serum, 2 mM L-glutamine, and 1% penicillin/ streptomycin.
(§2) The MTT assay was applied for cell viability test according to previous protocol. […] Medium treated with PBS served as control group. […] After medium was removed, 100 µL DMSO was added to dissolve the formazan crystal. Absorbance was measured at 570 nm using a microplate reader (TECAN Sunrise ELISA Reader).

The subject of series [7] is H1975 non-small cell lung carcinoma cells. It counts as cell-based. Conditions: 24 h. As for the experimental part: as §1, §2
Series [8] has as its system A549 adenocarcinomic alveolar basal epithelial cells. It is filed as cell-based. Conditions: 24 h. As for the experimental part:
as §1, §2

The test system of series [9] is PC 9 non-small cell lung cancer cells with EGFR mutation. It is filed as cell-based. Conditions: 24 h. As for the experimental part:
as §1, §2

The test system of series [10] is OECM-1 gingival epidermoid carcinoma cells. It counts as cell-based. Conditions: 24 h. As for the experimental part: as §1, §2

As to `CC(=O)N[C@@H](C)C(=O)N[C@@H](CCCCN)C(=O)N[C@@H](CCCNC(=N)N)C(=O)N[C@@H](Cc1ccc(-c2ccccc2)cc1)C(=O)N[C@@H](Cc1ccc(-c2ccccc2)cc1)C(=O)NCC(=O)N[C@@H](Cc1ccc(O)cc1)C(=O)N[C@@H](CCCCN)C(=O)N[C@@H](CCCNC(=N)N)C(=O)N[C@@H](CCCCN)C(=O)N[C@@H](Cc1ccccc1)C(=O)N[C@@H](Cc1ccc(-c2ccccc2)cc1)C(N)=O` [Bip-P-113] (Ac-AKR[Bip][Bip]GYKRKF[Bip]-NH2), in the series with PC 9 cells [1], the “plasma membrane integrity (PI entry)” value is on record as “cause damage to the plasma membrane integrity”. Further, the cell death result in the series with human fibroblasts (HFW) is “less than 10%”. Also, the cell survival rate result in the series on PC 9 cell line is reported as “below 50%”. Also, the cells killed result in the series with PC 9 cell line is on record as “more than 80%”. The “mitochondrial membrane potential (JC-1)” value in the series with PC 9 cells [2] is recorded as “induced changes of the mitochondrial membrane potential”. The “ATP release compared among the peptides” value with PC 9 cells [3] (PC 9, 2× IC50, at the 0.5 h peak) is “lowest ATP release”. For the same compound, the “treatment time of highest ATP release (RLU)” value (from here on “treatment time”) in the series with PC 9 cells [3] is recorded as 0.5 h. The “HMGB1 protein in supernatant” value in the series on PC 9 cells [4] (PC 9, 2× IC50, 1 h treatment) is reported as “No HMGB1 protein was observed”; with PC 9 cells [4] (PC 9, 2× IC50, after 2 and 4 h), “can hardly be detected”. Further, the “cytochrome c release, maximal value” in the series on PC 9 cells [5] was roughly 15 ng/mL. Besides, in the series with PC 9 cells [5], the “cytochrome c release, minimum value” was determined as 3 ng/mL. In addition, the 50% inhibitory concentration (IC50) is 42 µM in series [6]; 63.6 µM in [7]; 48.4 µM in series [8]; 64.2 µM in [9]; 42.5 µM in [10].

As for `CC(=O)N[C@@H](C)C(=O)N[C@@H](CCCCN)C(=O)N[C@@H](CCCNC(=N)N)C(=O)N[C@H](C(=O)N[C@H](C(=O)NCC(=O)N[C@@H](Cc1ccc(O)cc1)C(=O)N[C@@H](CCCCN)C(=O)N[C@@H](CCCNC(=N)N)C(=O)N[C@@H](CCCCN)C(=O)N[C@@H](Cc1ccccc1)C(=O)N[C@H](C(N)=O)C(c1ccccc1)c1ccccc1)C(c1ccccc1)c1ccccc1)C(c1ccccc1)c1ccccc1` [Dip-P-113] (Ac-AKR[Dip][Dip]GYKRKF[Dip]-NH2), the “plasma membrane integrity (PI entry)” value in the series on PC 9 cells [1] is “cause damage to the plasma membrane integrity”. Also, the cell death entry in the series on human fibroblasts (HFW) is recorded as “less than 10%”. Also, the cell survival rate entry with PC 9 cell line is on record as “around 60%”. The “mitochondrial membrane potential (JC-1)” value in the series on PC 9 cells [2] is on record as “induced changes of the mitochondrial membrane potential”. Also, the “treatment time” value in the series with PC 9 cells [3] came out at 0.5 h. Besides, the “HMGB1 protein in supernatant” value is recorded as “No HMGB1 protein was observed” with PC 9 cells [4] (PC 9, 2× IC50, 1 h treatment); “can clearly be seen” in the series with PC 9 cells [4] (PC 9, 2× IC50, after 2 and 4 h). For the same compound, in the series with PC 9 cells [5], the “cytochrome c release, maximal value” is listed as “around 3.5 ng/mL”. In the series with PC 9 cells [5], the “cytochrome c release, minimum value” is reported as “lower than 2 ng/mL”. Further, the IC50 turned out to be 67.9 µM in series [6], 96.4 µM in [8], 71.5 µM in series [9] and 62.9 µM in series [10].

For `CC(=O)N[C@@H](C)C(=O)N[C@@H](CCCCN)C(=O)N[C@@H](CCCNC(=N)N)C(=O)N[C@@H](Cc1ccc2ccccc2c1)C(=O)N[C@@H](Cc1ccc2ccccc2c1)C(=O)NCC(=O)N[C@@H](Cc1ccc(O)cc1)C(=O)N[C@@H](CCCCN)C(=O)N[C@@H](CCCNC(=N)N)C(=O)N[C@@H](CCCCN)C(=O)N[C@@H](Cc1ccccc1)C(=O)N[C@@H](Cc1ccc2ccccc2c1)C(N)=O` [Nal-P-113] (Ac-AKR[2Nal][2Nal]GYKRKF[2Nal]-NH2), the “plasma membrane integrity (PI entry)” value with PC 9 cells [1] is given as “cause damage to the plasma membrane integrity”. Moreover, the cell death entry with human fibroblasts (HFW) is “less than 10%”. Further, in the series on PC 9 cell line, the cell survival rate entry is listed as “below 50%”. The cells killed entry in the series on PC 9 cell line is “more than 80%”. In the series on PC 9 cells [2], the “mitochondrial membrane potential (JC-1)” value was “induced changes of the mitochondrial membrane potential”. Besides, the “treatment time” value in the series on PC 9 cells [3] was 0.5 h. The “HMGB1 protein in supernatant” value with PC 9 cells [4] (PC 9, 2× IC50, 1 h treatment) was “No HMGB1 protein was observed”; in the series with PC 9 cells [4] (PC 9, 2× IC50, after 2 and 4 h), “can clearly be seen”. For the same compound, the “cytochrome c release, maximal value” with PC 9 cells [5] was “around 3.5 ng/mL”. Further, the “cytochrome c release, minimum value” in the series with PC 9 cells [5] is “lower than 2 ng/mL”. For the same compound, the IC50 in series [6] was determined as 21.4 µM; in series [7] it was 58.3 µM; in series [8], 38.2 µM; in series [9] it was 28.1 µM; in series [10], 25.9 µM.

`CC(=O)N[C@@H](C)C(=O)N[C@@H](CCCCN)C(=O)N[C@@H](CCCNC(=N)N)C(=O)N[C@@H](Cc1c[nH]cn1)C(=O)N[C@@H](Cc1c[nH]cn1)C(=O)NCC(=O)N[C@@H](Cc1ccc(O)cc1)C(=O)N[C@@H](CCCCN)C(=O)N[C@@H](CCCNC(=N)N)C(=O)N[C@@H](CCCCN)C(=O)N[C@@H](Cc1ccccc1)C(=O)N[C@@H](Cc1c[nH]cn1)C(N)=O` [P-113, reference compound] (Ac-AKRHHGYKRKFH-NH2; N-terminus and C-terminus assumed): the concentration for half-maximal inhibition (IC50) in series [9] was greater than 200 µM.

With `CC(=O)N[C@@H](C)C(=O)N[C@@H](CCCCN)C(=O)N[C@@H](CCCNC(=N)N)C(=O)N[C@@H](Cc1ccccc1)C(=O)N[C@@H](Cc1ccccc1)C(=O)NCC(=O)N[C@@H](Cc1ccc(O)cc1)C(=O)N[C@@H](CCCCN)C(=O)N[C@@H](CCCNC(=N)N)C(=O)N[C@@H](CCCCN)C(=O)N[C@@H](Cc1ccccc1)C(=O)N[C@@H](Cc1ccccc1)C(N)=O` [Phe-P-113] (Ac-AKRFFGYKRKFF-NH2), the IC50 turned out to be 80.5 µM in [6], 99.1 µM in series [8], 173 µM in [9] and 120 µM in series [10].
